In patent publication US20100120703A1, “COMPOSITIONS AND METHODS FOR TREATING CANCER” (priority 2007, published 2010):

How the values were obtained:
Sprague Dawley (SD) rats = experiment: Histological analysis and GST-p immunostaining of liver, progression stage; assay type: in vivo, rat
Protocol: The liver samples were fixed with 10% formaldehyde and put in cassettes for dehydration and fixed with wax. Subsequently, liver samples were embedded in the solidified wax and sliced to 5 μm thickness with a microtome machine. Sliced samples were mounted onto Superfrost microscope slides for further studies.
Slides with liver sections were placed on a slide holder, dewaxed and rehydrated with xylene (3 times, each time 5 minutes), 100% ethanol (3 times, each time 3 minutes), 95% ethanol (3 minutes), 80% ethanol (3 minutes) and distilled water (5 minutes) in order. Slides were then immersed into hematoxylin for about 3 minutes, and the color was allowed to develop for several minutes in water, followed by brief destaining with acid ethanol and water. Slides were immersed into eosin for about 30 seconds to stain the cytoplasm red, followed by washing in tap water for several minutes. Slide-checking was necessary to assure the best staining effect. Slides were then dehydrated with 95% ethanol (3 minutes), 100% ethanol (3 times, each time 5 minutes), and xylene (3 times, each time 5 minutes), in order. Finally, the slides were mounted with coverslips and allowed to dry. […]
The images were checked and captured by an Axiophot-2 Universal microscope (Zeiss) connected with computer for documentation. The image was recorded by Spot 32 image capture software (Diagnostic Instruments). […]

HepG2 cells [1] = experiment: Apoptosis determination by DNA fragmentation assay; assay type: cell-based, human
Text: DNA fragmentation or DNA laddering is an indication of apoptosis. During the apoptosis process, the enzymes involved in DNA repair and cell replication are inactivated and nuclear proteins are degraded. After the nuclear structure is fragmented, DNA inside the nucleus is fragmented by the enzyme Caspase Activated DNase. This enzyme is only activated during apoptosis and causes the fragmentation of DNA into nucleosomal units (Hugh J M Brady, 2004). DNA fragmentation is used to identify the apoptosis event.
HepG2 cells were treated and harvested as described in the foregoing examples. The cell pellet was re-suspended in 400 μl of the lysis buffer by vortexing. Twenty microliters of 10 mg/ml protease K were added into the solution after a complete dissolution. The solution was incubated at 37° C. for 3 hours to completely lyse the cells. After incubation, the solution was allowed to cool to room temperature. One hundred and fifty microliters of a saturated NaCl solution were added into the cell lysate and vortexed. The lysate was centrifuged at 7,000 rpm for 15 minutes. The supernatant was collected in a new microcentrifuge tube. One milliliter of ice cold absolute ethanol was added to the solution to precipitate DNA. After precipitation, the microcentrifuge tube was centrifuged at 14,000 rpm for 20 minutes at 4° C. […]

HepG2 cells [2] = experiment: Cell cycle analysis by flow cytometry (PI); assay type: cell-based, human
Protocol: Flow Cytometery is a rapid and quantitative method for measuring certain physical and chemical characteristics of cells or particles as they travel in suspension through a sensor. When the cell is labeled with propidium iodide (PI), the DNA content can be measured which is used to determine the stage of the cell cycle. When cell cycles are obtained, a cell cycle map can be recorded.
HepG2 cells were trypsinized, washed and seeded into […] culture plates in complete RPMI medium. After 24 hours of pre-incubation, different concentrations (250 μM and 500 μM) of SIN were added to the culture plates. The complete RPMI medium was added to one plate containing control cells. After different periods of incubation with SIN, cells were harvested, the medium was removed from the culture plate and the plate was washed twice with 2 ml of 1×PBS buffer. All of the solutions were collected, and the cells were trypsinized and collected. The whole solution was centrifuged at 1,000 rpm for 3 minutes. The supernatant was removed and the cell pellet was resuspended in 1 ml 1×PBS buffer for washing. […]
The cell pellet was resuspended in 1 ml of 70% ethanol and 0.1 ml of 1×PBS buffer. […] DNA content was analyzed using an FACScan Flow cytometry with sufficient Sheath Fluid. The results were analyzed by the FCS express software produced by the De Novo Software Company.

C=CC/C(=N/OS(=O)(=O)[O-])S[C@@H]1OC(CO)[C@@H](O)C(O)C1O.[K+] (stereo partly drawn) [SIN, sinigrin]
hepatocyte structure in liver sections (H&E) (Sprague Dawley (SD) rats; 15 mg/kg oral daily): the basic structure was restored without abnormal appearance | GST-p positive area / whole section area (Sprague Dawley (SD) rats; positive control about 30%): less than 10% | DNA ladder on agarose gel (HepG2 cells [1]; 0.25 mM SIN): A DNA ladder started to appear | DNA ladder on agarose gel (HepG2 cells [1]; 0.5 mM SIN, 96 hours): a DNA ladder was clearly visible | cells arrested in sub G1 phase vs untreated cells (HepG2 cells [2]; 0.5 mM SIN, 96 hours): the increase of the cells arrested in sub G1 phase becomes very obvious | cell cycle effect in HepG2 cells (HepG2 cells [2]; SIN treatment, 24-96 hours): G0/G1 phase arrest
